According to publication PMC9413440, “An Iterative Approach Guides Discovery of the FabI Inhibitor Fabimycin, a Late-Stage Antibiotic Candidate with In Vivo Efficacy against Drug-Resistant Gram-Negative Infections” (ACS Central Science, 2022):
Values after ≈ are worked out from the molar mass of the structure shown. Like-named read-outs stand apart in the source and are kept apart here.

Columns and labels:
[1] = tested on: A. baumannii AR-0088; experiment: MIC against infective strain of PK/thigh models; assay type: cell-based; conditions: Acinetobacter baumannii, AR0088; drug-resistant A. baumannii, infective strain of the PK study (AR-0088)
Protocol: (§1) II. Materials and Methods for Biological Experiments
(§2) S. aureus ATCC 29213 and E. coli MG1655 were obtained from the American Type Culture Collection (ATCC). E. coli BW25113 and E. coli JW5503 were obtained from the Keio Collection. AR-bank strains were obtained from the Centers for Disease Control and Prevention and FDA Antibiotic Resistance Isolate Bank.
(§3) Antimicrobial susceptibility tests
(§4) Susceptibility testing was performed in biological triplicate, unless noted otherwise, using the micro-dilution broth method as outlined by the Clinical and Laboratory Standards Institute. Bacteria were cultured with cation-adjusted Mueller Hinton broth (Sigma Aldrich, catalogue number: 90922). […]
(§5) Error bars represent the standard error of the mean of three biological replicates. All compounds evaluated in biological assays were ≥95% pure.

[2] = tested on: A. baumannii 19606 FabI mutants; experiment: MIC of fabimycin-resistant mutants; assay type: cell-based; conditions: Acinetobacter baumannii
Protocol: as §1, §2, §3, §4, §5
Selection of resistant mutants
Resistant mutants were generated using the large inoculum method. Briefly, S. aureus 29213, E. coli MG1655, and A. baumannii 19606 (~1 x 1010 CFUs) was plated on 100-mm plates (E. coli and A. baumannii) or 150-mm plates (S. aureus) of MH agar containing either 128, 64, or 32 µg/mL fabimycin (for gram-negatives) or 0.125, 0.062, and 0.031 µg/mL fabimycin (for S. aureus). Plates were incubated at 37 °C for 48 h and counted for the presence of colony forming units.
Glycerol stocks of selected colonies were made, and resistant colonies confirmed by growing on agar plates containing the same concentration of fabimycin that they were generated at.
Sequencing of bacterial fabI
The FabI gene was amplified by PCR. Fabimycin-resistant colonies were picked and diluted in 100 µL sterile, nuclease-free H2O. PCR reactions were then set up by combining 14 µL H2O, 1 µL 20 µM primer mix, 10 µL template (bacteria solution in H2O), and 25 µL MiFi Mix (Bioline). The reaction was performed on a C1000 Thermal Cycler (Bio-Rad) under the following conditions for 35 cycles: initial denature: 95 °C for 3 min; denature 95 °C for 15 s; anneal: 57 °C for 15 s; extend 72 °C for 30 s; final extend: 72 °C for 3 min. A 10 µL portion of PCR reaction mixture was analyzed by agarose gel electrophoresis to confirm the single 1.4-kilobase pair product. PCR products were purified using a GeneJET PCR Purification Kit (Thermo Fischer Scientific). PCR amplicons were submitted to the Core DNA Sequencing Facility at the University of Illinois at Urbana-Champaign for Sanger sequencing with overlapping internal primers. All primers were obtained from Integrated DNA Technologies.
Primers for sequencing of fabI gene in select pathogens: […]
Organism Sequence Reference
Forward 5’-GGG-GCC-AGC-GTT-TCT-TTT-TC-3‘ Parker, 20203
Reverse 5’-AAA-CAT-GGA-GAC-GGT-GCT-GG
Forward 5’-GTG-AGA-TCG-GCA-TGA-CAC-AA-3’ Lin, 20179
Reverse 5’-CTG-AAG-TCC-GCT-ACC-GTT-AT-3’
Compound stability in mammalian plasma
Candidate drugs were incubated with plasma and parent drug levels were monitored at various time points (generally t=0, 10, 20, 30, and 60 minutes) to determine the drug’s half-life in the presence of the chosen system. Each drug is tested in duplicate. Compounds were diluted from 10 mM DMSO stocks to 1 µM in a 100 mM pH 7.4 phosphate buffer and incubated at 37 °C with 0.5 mg/mL of human, rat, or mouse plasma (BioreclamationIVT, Baltimore, MD). Time points were collected at 0 min (after addition of drug), 15 min, 30 min, 60 min, and 120 min following quenching with an equal volume of acetonitrile. The supernatant was collected after centrifugation, and the sample analyzed by LC-MS where the percentage of compound remaining is plotted vs time to determine the drug’s half-life.
Compound plasma protein binding
Candidate drugs were incubated with plasma and parent drug levels are monitored after 4 hours to determine the drug’s free concentration in the presence of the plasma proteins. The standard assay involves equilibrium dialysis, in which compound is allowed to equilibrate between a protein-containing compartment from a protein-free compartment. Each

[3] = tested on: E. coli AR-0055; experiment: Urinary tract infection model; assay type: in vivo, mouse; conditions: 33.3 mg/kg IV three times a day, 168 h postinfection
Protocol: Urinary tract infection model
The protocol to assess fabimycin’s efficacy in a urinary tract infection was approved by the IACUC (protocol number:
IM011-12282020). In this study specific pathogen-free C3H/HeJ (Tlr4Lps-d) mice that were 7-8 weeks were used and provided with 5% glucose for 6 days prior to infection and for the duration of the experiment.12, 13 On day 0, mice were infected with E. coli AR-0055 (1.38 * 10^9 CFU/mouse, transurethral) while under pentobarbital anesthesia (50 mg/kg, IP). Treatment was initiated 96 hours post-infection with test articles. Fabimycin was formulated in 17% Cremophor EL/3% SBE-β-CD and administered intravenously while the control, colistin, was formulated in 0.9% NaCl and administered subcutaneously. Doses were administered once, twice, or three times daily for 3 consecutive days with animal sacrifice and burden enumeration at 168 hours post-infection. Tissues were collected and pathogen burden evaluated by dilution plating technique on nutrient agar plates.

Structure (SMILES): Cc1c(CN(C)C(=O)/C=C/c2cnc3c(c2)CC[C@H](N)C(=O)N3)oc2ccccc12 [fabimycin]
- MIC [1]: 2 µg/mL (≈ 4.94 µM)
- MIC ([2]; FabI mutation A118T, plated at 16x MIC (32 μg/mL), colonies 4/5, read-out: MIC of mutants): 64 to 128 µg/mL
- MIC ([2]; FabI mutation N160K, plated at 16x MIC (32 μg/mL), colonies 1/5, read-out: MIC of mutants): 128 µg/mL
- MIC ([2]; read-out: MIC of mutants, FabI WT, plated at 8x MIC (16 μg/mL), colonies 2/5): 8 to 16 µg/mL
- MIC ([2]; read-out: MIC of mutants, FabI mutation A118T, plated at 32x MIC (64 μg/mL), colonies 4/5): 64 µg/mL
- MIC ([2]; read-out: MIC of mutants, FabI mutation A118V, plated at 8x MIC (16 μg/mL), colonies 1/5): 128 µg/mL
- MIC ([2]; read-out: MIC of mutants, FabI mutation F206L, plated at 8x MIC (16 μg/mL), colonies 1/5): 32 µg/mL
- MIC ([2]; read-out: MIC of mutants, FabI mutation G151S, plated at 32x MIC (64 μg/mL), colonies 1/5): 64 µg/mL
- MIC ([2]; read-out: MIC of mutants, FabI mutation M162T, plated at 8x MIC (16 μg/mL), colonies 1/5): 128 µg/mL
- log10 reduction in bacterial load relative to the vehicle ([3]; bladder): 2.8 log10
- log10 reduction in bacterial load relative to the vehicle ([3]; kidney): 1.9 log10
- log10 reduction in bacterial load relative to the vehicle ([3]; liver): 2.9 log10
- log10 reduction in bacterial load relative to the vehicle ([3]; spleen): 3.0 log10
